Assay results as given in the NIST ThermoML archive (doi:10.1016/j.fluid.2013.07.054).
± gives the expanded uncertainty stated by the source.

Details: 298.15 K; 101 kPa; Liquid; Vibrating tube method

**Q.** Which mass density does the source give for `CC(=O)C(C)C` [3-methyl-2-butanone] here?
**A.** 800.63 ± 0.11 kg/m3

**Q.** With `CC(=O)CC(C)C` [4-methylpentan-2-one] as the compound, how does the mass density read?
**A.** 796.23 ± 0.11 kg/m3

**Q.** Which mass density does the source give for `CCC(C)=O` [butanone] here?
**A.** 800.3 ± 0.11 kg/m3
